Measurements as given in paper PMC7401714 (Japanese Journal of Clinical Oncology, 2020).

Legend:
[1] = tested on: advanced solid tumors; experiment: Phase I; assay type: in vivo, human; settings: for PFS, single patient: 500 mg once daily
[2] = Phase I; assay type: in vivo, human; settings: for T lag / Tmax: median, [range]; for Tmax: human, in vivo, T max
[3] = tested on: patients with advanced solid tumors; settings: first-in-man trial outside of Japan; cited from earlier work
[4] = tested on: Japanese patients with advanced solid tumors; experiment: Phase I dose escalation; settings: for Patients with TEAE leading to death: primary reason for death was disease progression

## CN1CCC(COc2cnc(-c3cccc(Cn4nc(-c5cccc(C#N)c5)ccc4=O)c3)nc2)CC1 [Tepotinib]
[1]; all patients (n = 12), 90% CI
  median PFS: 1.38 (90% CI: 1.15–1.38) months
[1]; nine of 12 patients overall
  patients with BOR of disease progression: 75%
[1]; of 12 patients, both treated with 500 mg once daily
  patients with BOR of stable disease (SD) ≥12 weeks: 16.7%
[1]; patient with urachal cancer (MET status not evaluable)
  PFS, single patient: 12.9 months
[1]; patient, MET-expressing (IHC 2+) gastric cancer, four prior lines of chemotherapy
  PFS, single patient: 4.6 months
[2]; 500 mg once daily
  Caverage at steady state, all patients: > 700 ng/mL
[2]; Day 1, 215 mg once daily (n = 3)
  T lag: 1.95 [1.95–1.97] h
[2]; Day 1, 300 mg once daily (n = 3)
  T lag: 0.97 [0.97–2.00] h
[2]; Day 1, 500 mg once daily (n = 6)
  T lag: 0.99 [0.47–1.98] h
[2]; after the first and multiple oral doses, 215–500 mg
  dose proportionality of exposure (Cmax, AUC0–t): less than dose proportional
[2]; 215 mg, Day 1, 215 mg once daily (n = 3)
  Tmax: 8 h
[2]; 215 mg, Day 14, 215 mg once daily (n = 3)
  Tmax: 8 h
[2]; 300 mg, Day 1, 300 mg once daily (n = 3)
  Tmax: 8 h
[2]; 300 mg, Day 14, 300 mg once daily (n = 3)
  Tmax: 9.9 h
[2]; 500 mg, Day 1, 500 mg once daily (n = 6)
  Tmax: 10 h
[2]; 500 mg, Day 14, 500 mg once daily (n = 5)
  Tmax: 4.1 h
[2]; individual patients
  trough concentrations between cycles 1 and 4: remained stable
[3]
  dose up to which monotherapy was generally well tolerated: ≤ 1400 mg once daily
  maximum tolerated dose (MTD): could not be established
[4]; 215 mg once daily (n = 3)
  Patients with TEAE leading to treatment discontinuation: 0 n (%)
  Patients with any TEAE: 2 n (%)
  Patients with any grade ≥3 TEAE: 0 n (%)
  Patients with any related grade ≥3 TEAE: 0 n (%)
  Patients with any related serious TEAE: 0 n (%)
  Patients with any serious TEAE: 0 n (%)
  Patients with any treatment-related TEAE: 1 n (%)
  Patients with related TEAE leading to death: 0 n (%)
  Patients with related TEAE of special interest (lipase or amylase elevation of grade ≥3): 0 n (%)
  Tepotinib-related TEAE, Grade 3/4: Hyponatremia (grade 3): 0 n (%)
  Tepotinib-related TEAE, Grade 3/4: Lipase increase (grade 4): 0 n (%)
  Tepotinib-related TEAE, any grade: Acneiform dermatitis: 0 n (%)
  Tepotinib-related TEAE, any grade: Amylase increase: 0 n (%)
  Tepotinib-related TEAE, any grade: Decreased appetite: 1 n (%)
  Tepotinib-related TEAE, any grade: Dysgeusia: 1 n (%)
  Tepotinib-related TEAE, any grade: Fatigue: 1 n (%)
  Tepotinib-related TEAE, any grade: Hypoalbuminemia: 0 n (%)
  Tepotinib-related TEAE, any grade: Hyponatremia: 0 n (%)
  Tepotinib-related TEAE, any grade: Lipase increase: 0 n (%)
  Tepotinib-related TEAE, any grade: Nausea: 0 n (%)
  Tepotinib-related TEAE, any grade: Serum creatinine increase: 0 n (%)
  Tepotinib-related TEAE, any grade: Stomatitis: 0 n (%)
  Tepotinib-related TEAE, any grade: Vomiting: 0 n (%)
  Patients with TEAE leading to death: 0 n (%)
[4]; 300 mg once daily (n = 3)
  Patients with TEAE leading to treatment discontinuation: 0 n (%)
  Patients with any TEAE: 3 n (%)
  Patients with any grade ≥3 TEAE: 3 n (%)
  Patients with any related grade ≥3 TEAE: 0 n (%)
  Patients with any related serious TEAE: 0 n (%)
  Patients with any serious TEAE: 3 n (%)
  Patients with any treatment-related TEAE: 1 n (%)
  Patients with related TEAE leading to death: 0 n (%)
  Patients with related TEAE of special interest (lipase or amylase elevation of grade ≥3): 0 n (%)
  Tepotinib-related TEAE, Grade 3/4: Hyponatremia (grade 3): 0 n (%)
  Tepotinib-related TEAE, Grade 3/4: Lipase increase (grade 4): 0 n (%)
  Tepotinib-related TEAE, any grade: Acneiform dermatitis: 0 n (%)
  Tepotinib-related TEAE, any grade: Amylase increase: 0 n (%)
  Tepotinib-related TEAE, any grade: Decreased appetite: 0 n (%)
  Tepotinib-related TEAE, any grade: Dysgeusia: 0 n (%)
  Tepotinib-related TEAE, any grade: Fatigue: 1 n (%)
  Tepotinib-related TEAE, any grade: Hypoalbuminemia: 0 n (%)
  Tepotinib-related TEAE, any grade: Hyponatremia: 0 n (%)
  Tepotinib-related TEAE, any grade: Lipase increase: 0 n (%)
  Tepotinib-related TEAE, any grade: Nausea: 0 n (%)
  Tepotinib-related TEAE, any grade: Serum creatinine increase: 0 n (%)
  Tepotinib-related TEAE, any grade: Stomatitis: 0 n (%)
  Tepotinib-related TEAE, any grade: Vomiting: 0 n (%)
  Patients with TEAE leading to death: 0 n (%)
[4]; 500 mg once daily (n = 6)
  Patients with TEAE leading to treatment discontinuation: 0 n (%)
  Patients with any TEAE: 6 n (%)
  Patients with any grade ≥3 TEAE: 4 n (%)
  Patients with any related grade ≥3 TEAE: 3 n (%)
  Patients with any related serious TEAE: 0 n (%)
  Patients with any serious TEAE: 1 n (%)
  Patients with any treatment-related TEAE: 3 n (%)
  Patients with related TEAE leading to death: 0 n (%)
  Patients with related TEAE of special interest (lipase or amylase elevation of grade ≥3): 2 n (%)
  Tepotinib-related TEAE, Grade 3/4: Hyponatremia (grade 3): 1 n (%)
  Tepotinib-related TEAE, Grade 3/4: Lipase increase (grade 4): 2 n (%)
  Tepotinib-related TEAE, any grade: Acneiform dermatitis: 1 n (%)
  Tepotinib-related TEAE, any grade: Amylase increase: 2 n (%)
  Tepotinib-related TEAE, any grade: Decreased appetite: 0 n (%)
  Tepotinib-related TEAE, any grade: Dysgeusia: 1 n (%)
  Tepotinib-related TEAE, any grade: Fatigue: 0 n (%)
  Tepotinib-related TEAE, any grade: Hypoalbuminemia: 2 n (%)
  Tepotinib-related TEAE, any grade: Hyponatremia: 1 n (%)
  Tepotinib-related TEAE, any grade: Lipase increase: 2 n (%)
  Tepotinib-related TEAE, any grade: Nausea: 1 n (%)
  Tepotinib-related TEAE, any grade: Serum creatinine increase: 1 n (%)
  Tepotinib-related TEAE, any grade: Stomatitis: 1 n (%)
  Tepotinib-related TEAE, any grade: Vomiting: 1 n (%)
  Patients with TEAE leading to death: 1 n (%)
[4]; 215, 300 and 500 mg once daily, cycle 1
  dose-limiting toxicities (DLTs): No DLTs
[4]; Total, all doses (n = 12)
  Patients with TEAE leading to treatment discontinuation: 0 n (%)
  Patients with any TEAE: 11 (91.7) n (%)
  Patients with any grade ≥3 TEAE: 7 (58.3) n (%)
  Patients with any related grade ≥3 TEAE: 3 (25.0) n (%)
  Patients with any related serious TEAE: 0 n (%)
  Patients with any serious TEAE: 4 (33.3) n (%)
  Patients with any treatment-related TEAE: 5 (41.7) n (%)
  Patients with related TEAE leading to death: 0 n (%)
  Patients with related TEAE of special interest (lipase or amylase elevation of grade ≥3): 2 (16.7) n (%)
  Tepotinib-related TEAE, Grade 3/4: Hyponatremia (grade 3): 1 (8.3) n (%)
  Tepotinib-related TEAE, Grade 3/4: Lipase increase (grade 4): 2 (16.7) n (%)
  Tepotinib-related TEAE, any grade: Acneiform dermatitis: 1 (8.3) n (%)
  Tepotinib-related TEAE, any grade: Amylase increase: 2 (16.7) n (%)
  Tepotinib-related TEAE, any grade: Decreased appetite: 1 (8.3) n (%)
  Tepotinib-related TEAE, any grade: Dysgeusia: 2 (16.7) n (%)
  Tepotinib-related TEAE, any grade: Fatigue: 2 (16.7) n (%)
  Tepotinib-related TEAE, any grade: Hypoalbuminemia: 2 (16.7) n (%)
  Tepotinib-related TEAE, any grade: Hyponatremia: 1 (8.3) n (%)
  Tepotinib-related TEAE, any grade: Lipase increase: 2 (16.7) n (%)
  Tepotinib-related TEAE, any grade: Nausea: 1 (8.3) n (%)
  Tepotinib-related TEAE, any grade: Serum creatinine increase: 1 (8.3) n (%)
  Tepotinib-related TEAE, any grade: Stomatitis: 1 (8.3) n (%)
  Tepotinib-related TEAE, any grade: Vomiting: 1 (8.3) n (%)
  Patients with TEAE leading to death: 1 (8.3) n (%)
[4]; all doses
  vital signs and other safety observations: No clinically relevant abnormalities
[4]; all doses (n = 12)
  patients with tepotinib-related TEAEs of any grade: 41.7%
